Measured values reported in ChEMBL document CHEMBL1156723, “Structure-activity relationship study on a novel series of cyclopentane-containing macrocyclic inhibitors of the hepatitis C virus NS3/4A protease leading to the discovery of TMC435350” (Bioorg Med Chem Lett, 2008).

Legend:
[1] = Clearance in Sprague-Dawley rat at 2 mg/kg, iv; assay type: ADME, organism-based; parameters: dose 2 mg/kg, route intravenous; conditions: in vivo
[2] = Volume of distribution at steady state in Sprague-Dawley rat at 2 mg/kg, iv; assay type: ADME, organism-based; parameters: dose 2 mg/kg, route intravenous; conditions: in vivo, read-out: Vdss
[3] = AUC in Sprague-Dawley rat at 2 mg/kg, iv; assay type: ADME, organism-based; parameters: dose 2 mg/kg, route intravenous; conditions: plasma
[4] = Cmax in Sprague-Dawley rat at 10 mg/kg, po; assay type: ADME, organism-based; parameters: dose 10 mg/kg, route oral; conditions: in vivo
[5] = AUC in Sprague-Dawley rat at 10 mg/kg, po; assay type: ADME, organism-based; parameters: dose 10 mg/kg, route oral; conditions: plasma
[6] = Metabolic stability in human liver microsomes assessed as intrinsic clearance; assay type: ADME, Microsome
[7] = Ratio of drug level in liver to plasma in Sprague-Dawley rat at 10 mg/kg, po after 6 hrs; assay type: ADME, organism-based; parameters: dose 10 mg/kg, route oral
[8] = Inhibition of recombinant full length HCV NS3/4A protease; parameters: species or system Hepacivirus hominis
[9] = Oral bioavailability in Sprague-Dawley rat at 10 mg/kg, po; assay type: ADME, organism-based; conditions: in vivo
[10] = Ratio of drug level in liver to plasma in Sprague-Dawley rat at 2 mg/kg, iv after 6 hrs; assay type: ADME, organism-based; parameters: dose 2 mg/kg, route intravenous
[11] = Half life in Sprague-Dawley rat at 10 mg/kg, po; assay type: ADME, organism-based; parameters: dose 10 mg/kg, route oral; conditions: in vivo
Hepatitis C virus = experiment: Antiviral activity against HCV in human Huh7 cells assessed as luciferase activity; assay type: functional, organism-based, Hepacivirus hominis; conditions: Huh-7
[12] = Tmax in Sprague-Dawley rat at 10 mg/kg, po; assay type: ADME, organism-based; parameters: dose 10 mg/kg, route oral; conditions: in vivo
Liver microsomes = experiment: Metabolic stability in rat liver microsomes assessed as intrinsic clearance; assay type: ADME, Microsome
[13] = Bile excretion of compound in rat at 1 mg/kg, iv after 1 hr; assay type: ADME, organism-based; parameters: dose 1 mg/kg, route intravenous; conditions: read-out: Activity
[14] = Ratio of drug level in liver to plasma in Sprague-Dawley rat at 2 mg/kg, iv after 8 hrs; assay type: ADME, organism-based; parameters: dose 2 mg/kg, route intravenous
[15] = Ratio of drug level in liver to plasma in Sprague-Dawley rat at 10 mg/kg, po after 8 hrs; assay type: ADME, organism-based; parameters: dose 10 mg/kg, route oral

In the case of `COc1ccc2c(O[C@@H]3C[C@H]4C(=O)N[C@]5(C(=O)NS(=O)(=O)C6CC6)C[C@H]5/C=C\CCCCN(C)C(=O)[C@@H]4C3)cc(-c3nc(C(C)C)cs3)nc2c1C` [SIMEPREVIR], the clearance [1] is reported as 8.42 mL/min/kg, the Vd [2] is reported as 0.49 L/kg and the AUC [3] is reported as 5.21 µM·h. The Cmax [4] was 730 nM, the AUC [5] was 2.79 µM·h and the microsomal CLint [6] was less than 6 µL/min/mg. The Kp at 6 h [7] was 32, the Ki [8] was 0.36 nM and the bioavailability [9] was 11%. For the same molecule, the Kp at 6 h [10] was 63.5, the half-life [11] was 2.8 h and the EC50 (Hepatitis C virus) was 7.8 nM. For the same molecule, the Tmax [12] was 3 h.

For `CCc1c(OC)ccc2c(O[C@@H]3C[C@H]4C(=O)N[C@]5(C(=O)NS(=O)(=O)C6CC6)C[C@H]5/C=C\CCCCN(C)C(=O)[C@@H]4C3)cc(-c3nc(C(C)C)cs3)nc12`, the Ki [8] was 3.1 nM and the EC50 (Hepatitis C virus) was 66 nM.

For `COc1ccc2c(O[C@@H]3C[C@H]4C(=O)N[C@]5(C(=O)NS(=O)(=O)C6CC6)C[C@H]5/C=C\CCCCN(C)C(=O)[C@@H]4C3)cc(-c3cccc(C(C)C)n3)nc2c1C`, the clearance [1] was 23.3 mL/min/kg, the Vd [2] was 0.7 L/kg and the AUC [3] was 1.36 µM·h. The Cmax [4] was 300 nM, the AUC [5] was 1.4 µM·h and the microsomal CLint [6] was less than 6 µL/min/mg. It also gave a Ki [8] of 0.3 nM, a bioavailability [9] of 31% and a half-life [11] of 5.8 h. For the same molecule, the EC50 (Hepatitis C virus) was 6.8 nM and the Tmax [12] was 2 h.

In the case of `COc1ccc2c(O[C@@H]3C[C@H]4C(=O)N[C@]5(C(=O)NS(=O)(=O)C6CC6)C[C@H]5/C=C\CCCCN(C)C(=O)[C@@H]4C3)cc(-c3ccccc3)nc2c1`, the clearance (Liver microsomes) is reported as 46 µL/min/mg, the microsomal CLint [6] is reported as 46 µL/min/mg and the Ki [8] is reported as 0.41 nM. For the same molecule, the dose excreted at 1 h [13] was 95% and the EC50 (Hepatitis C virus) was 9 nM.

Work on `COc1ccc2c(O[C@@H]3C[C@H]4C(=O)N[C@]5(C(=O)NS(=O)(=O)C6CC6)C[C@H]5/C=C\CCCCN(C)C(=O)[C@@H]4C3)cc(-c3csc(NC(C)C)n3)nc2c1` yielded a microsomal CLint [6] of 15 µL/min/mg, a Ki [8] of 1.4 nM and an EC50 (Hepatitis C virus) of 17 nM.

In the case of `COc1ccc2c(O[C@@H]3C[C@H]4C(=O)N[C@]5(C(=O)NS(=O)(=O)C6CC6)C[C@H]5/C=C\CCCCN(C)C(=O)[C@@H]4C3)cc(-n3ccc(C(C)C)n3)nc2c1C`, the clearance [1] is reported as 41.7 mL/min/kg, the Vd [2] is reported as 4.6 L/kg and the AUC [3] is reported as 1.05 µM·h. It also gave a Cmax [4] of 310 nM, an AUC [5] of 1.3 µM·h and a microsomal CLint [6] of less than 6 µL/min/mg. The Ki [8] was 0.16 nM, the bioavailability [9] was 25% and the Kp at 8 h [14] was 23.5. For the same molecule, the half-life [11] was 2.2 h, the EC50 (Hepatitis C virus) was 9.7 nM and the Tmax [12] was 1.5 h. The Kp at 8 h [15] was 44.

With `COc1ccc2c(O[C@@H]3C[C@H]4C(=O)N[C@]5(C(=O)NS(=O)(=O)C6CC6)C[C@H]5/C=C\CCCCN(C)C(=O)[C@@H]4C3)cc(-c3nc(C(C)C)cs3)nc2c1F` the Ki [8] was 0.55 nM and the EC50 (Hepatitis C virus) was 57 nM.

Molecule `COc1ccc2c(O[C@@H]3C[C@H]4C(=O)N[C@]5(C(=O)NS(=O)(=O)C6CC6)C[C@H]5/C=C\CCCCN(C)C(=O)[C@@H]4C3)cc(-c3nc(C(C)C)cs3)nc2c1Cl` has a microsomal CLint [6] of 9 µL/min/mg, a Ki [8] of 0.1 nM and an EC50 (Hepatitis C virus) of 2.9 nM.

Work on `C=C[C@@H]1C[C@]1(NC(=O)[C@@H]1C[C@@H](Oc2cc(-c3ccccc3)nc3cc(OC)ccc23)C[C@H]1C(=O)N[C@H](C(=O)N[C@H](C(=O)NC)C1CCCCC1)C(C)(C)C)C(=O)O` yielded a Ki [8] of 22 nM.

For `COc1ccc2c(O[C@@H]3C[C@H]4C(=O)N[C@]5(C(=O)NS(=O)(=O)C6CC6)C[C@H]5/C=C\CCCCN(C)C(=O)[C@@H]4C3)cc(-c3nccs3)nc2c1`, the microsomal CLint [6] was 38 µL/min/mg, the Ki [8] was 0.2 nM and the EC50 (Hepatitis C virus) was 11 nM.

In the case of `COc1ccc2c(O[C@@H]3C[C@H]4C(=O)N[C@]5(C(=O)NS(=O)(=O)C6CC6)C[C@H]5/C=C\CCCCN(C)C(=O)[C@@H]4C3)cc(-c3nc(C(C)C)cs3)nc2c1`, the microsomal CLint [6] is reported as 16 µL/min/mg, the Ki [8] is reported as 0.84 nM and the EC50 (Hepatitis C virus) is reported as 17 nM.
